Where a name gives a salt, the structure may show the parent alone.
Assay: Solubility testing of paroxetine hydrochloride in liquid carriers/solvents
Assay type: physicochemical
Text: Since solid paroxetine forms are in general only sparingly soluble in common solvents, the solvents which are acceptable for use in capsules and for administration to patients need to be subjected to routine solubility testing to confirm that they can maintain an appropriate concentration of paroxetine. In addition, higher loadings of a paroxetine form in a suitable solvent may be achieved by using conventional physical techniques such as heating, shaking and sonication. Alternatively good solvents for paroxetine may be used in small amounts as cosolvents to solubilize paroxetine in liquids that are acceptable for capsule use but in which paroxetine is poorly soluble. Solubilising agents such as the polysorbates, the poloxamers, cyclodextrins, ionic and non-ionic surface active agents, for example Pluronic F60 and Sorbitan esters may also be used to enhance the solubility of paroxetine hydrochloride in solvents acceptable for capsule use but in which paroxetine is poorly soluble.
The term “oral swallow capsule” most suitably denotes a capsule having a maximum volume of 0.86 ml. Preferred capsules according to the present invention have a maximum volume of about 0.45 ml and more especially may lie in the range 0.2 to 0.4 ml, although capsules as small as 0.14 ml are also provided by the invention. […]

| solubility (oil or lipid, in plant oils (Sunflower, Safflower, Peanut, Soybean, Cottonseed, Corn, Castor, Apricot seed, Olive, Wheat germ, Sesame, Evening Primrose, Canola), Mineral oil, liquid paraffin, Miglyol 810/812, Oleic acid, Ethyl Oleate, Span 80/85, Labrafac lipophile, Plurol Oleique, Peceol) | solubility (in words) (in Propylene Carbonate, Triacetin, Glycerol, Lauroglycol, Propylene glycol, PEG 300, Glycofurol, PEG 400, IPA, Span 20, Transcutol, Labrasol, Labrafil, Olepal, Glyceryl Linoleate (Maisine 35-1), Pharmasolve) | SMILES |
| --- | --- | --- |
| < 10000 µg/mL |  | Fc1ccc([C@@H]2CCNC[C@H]2COc2ccc3c(c2)OCO3)cc1 [paroxetine hydrochloride] |
|  | useful solubility | Fc1ccc([C@@H]2CCNC[C@H]2COc2ccc3c(c2)OCO3)cc1 [paroxetine, (−)trans isomer of 4-(4′-fluorophenyl)-3-(3′,4′-methylenedioxy-phenoxymethyl)-piperidine] |
